{
  "source": "patent US20120009152A1",
  "about": "“NITRIC OXIDE DONORS FOR TREATMENT OF DISEASE AND INJURY” (priority 2002, published 2012)",
  "type_in_all_cases": "in vivo, rat",
  "key": {"[1]": {"system": "rats subjected to embolic middle cerebral artery occlusion", "assay": "Infarct volume 28 days after embolic MCA occlusion", "details": "28 days after ischemia", "description": "(§1) Male Wistar rats weighing 320 to 380 g were used in the present study. The middle cerebral artery (MCA) was occluded by placement of an embolus at the origin of the MCA.\n(§2) Ischemic rats (n=9) were treated with the same volume of tap water as a control group. Functional tests were performed and body weight was measured before ischemia and at 4, 7, 14, 21, and 28 days after onset of MCA occlusion. All rats were killed 28 days after MCA occlusion. […] These rats were killed 1 hour after the last treatment for measurements of brain levels of cGMP. […] Experiments were also performed to examine brain PDE5, nonischemic rats and ischemic rats were killed at 2, 4, 24, 48, and 168 hours after the onset of ischemia (n=3 for each time point). Reverse transcription (RT)-polymerase chain reaction (PCR) was performed to detect PDE5 in brain tissue.\nMeasurement of infarct volume was measured on 7 hematoxylin and eosin-stained coronal sections with the use of a Global Laboratory Image analysis program (Data Translation). Briefly, the area of both hemispheres and the infarct area (mm 2) were calculated by tracing the area on the computer screen. Infarct volume (mm 3) was determined by multiplying the appropriate area by the section interval thickness. The infarct volume is presented as the percent-age of infarct volume of the contralateral hemisphere (indirect volume calculation)."}, "[2]": {"system": "TuJ1-immunoreactive cells in the subventricular zone and striatum", "assay": "TuJ1 immunostaining of immature neurons after embolic MCA occlusion", "description": "Male Wistar rats weighing 320 to 380 g were used in the present study. The middle cerebral artery (MCA) was occluded by placement of an embolus at the origin of the MCA. […] Ischemic rats (n=9) were treated with the same volume of tap water as a control group. Functional tests were performed and body weight was measured before ischemia and at 4, 7, 14, 21, and 28 days after onset of MCA occlusion. All rats were killed 28 days after MCA occlusion. […] These rats were killed 1 hour after the last treatment for measurements of brain levels of cGMP. […] Reverse transcription (RT)-polymerase chain reaction (PCR) was performed to detect PDE5 in brain tissue. […] Reaction product was detected with the use of 3′3′-diaminobenzidine-tetrahydrochloride (DAB; Sigma), For ′III-tubulin (TuJ1) immunostaining, which identifies immature neurons, 12 coronal sections were incubated with the antibody against TuJ1 (1:1000) at 4° C. overnight and were then incubated with a biotinylated horse anti-mouse immunoglobulin antibody at room temperature for 30 minutes. […] BrdU-immunoreactive nuclei were counted on a computer monitor to improve visualization and in 1 focal plane to avoid oversampling. All BrdU-immunoreactive-positive nuclei were counted in both the ipsilateral and contralateral walls of the lateral ventricle of the subventricular zone and in the dentate gyrus. […]"}, "[3]": {"system": "rats subjected to embolic middle cerebral artery occlusion", "assay": "Foot-fault test after embolic MCA occlusion", "description": "as §1, §2\nRats were tested for placement dysfunction of forelimbs with the modified foot-fault test before ischemia and at 4, 7, 14, 21, and 28 days after embolic ischemia. Rats were set on an elevated hexagonal grid of different sizes and placed their paws on the wire while moving along the grid. With each weight-bearing step, the paw may fall or slip between the wire. The total number of steps (movement of each forelimb) that the rat used to cross the grid was counted, and the total number of foot-faults for each forelimb was recorded."}, "[4]": {"system": "BrdU immunoreactive cells in dentate gyrus, SVZ and OB", "assay": "Cell proliferation (BrdU) in non-ischemic aged rats", "details": "non-ischemic 18-month-old rats; DETA/NONOate 0.4 mg/kg daily 7 days; vs saline", "description": "[…] […] I.V bolus doses of DETA/NONOate (0.1 mg/kg each, every 15 min, and total dose of 0.4 mg/kg) on the first experimental day and DETA/NONOate (0.4 mg/kg) was administered (i.p) daily for an additional 6 consecutive days. Rats that received saline were used as a control group. Bromodeoxyuridine (BrdU) was used as mitotic labeling to measure cell proliferation. Animals received daily i.p injections of BrdU (50 mg/kg, Sigma) on the first experimental day and subsequently for 14 consecutive days. Rats were sacrificed at 14 and 42 days after the treatment. BrdU immunoreactive nuclei were counted on a computer monitor to improve visualization and in one focal plane to avoid over-sampling. Structures were sampled either by selecting predetermined areas on each section (OB) or by analyzing entire structures on each section (SVZ and dentate gyrus) (Zhang et al., 2001). All BrdU immunoreactive-positive nuclei in these areas are presented as the number of the BrdU immunoreactive cells/mm^2. Density for the selected several sections was averaged to obtain a mean density value for each animal (Zhang et al., 2001).\nThe question of whether this induction of neurogenesis by means of an NO donor in young adult (3-4 month old) rats would also be present in older rats was also tested. […]"}},
  "data": [
    {"smiles": "CCCc1nn(C)c2c(=O)[nH]c(-c3cc(S(=O)(=O)N4CCN(C)CC4)ccc3OCC)nc12", "note": "[Sildenafil]", "values": [
      {"measurement": "Infarct Volume, %", "setting": "[1]; Sildenafil 2 mg/kg, 2 h, percentage of lesion relative to the contralateral hemisphere", "result": "35.2 ± 3.3", "unit": "%"},
      {"measurement": "Infarct Volume, %", "setting": "[1]; Sildenafil 2 mg/kg, 24 h", "result": "35.5 ± 0.9", "unit": "%"},
      {"measurement": "Infarct Volume, %", "setting": "[1]; Sildenafil 5 mg/kg, 2 h", "result": "37.7 ± 4.3", "unit": "%"},
      {"measurement": "numbers of TuJ1-immunoreactive cells in the ipsilateral and contralateral subventricular zones", "setting": "[2]; sildenafil 2 or 5 mg/kg, 28 days after ischemia, vs control rats", "result": "significantly (P=0.05) increased numbers of TuJ1-immunoreactive cells"},
      {"measurement": "number of TuJ1 cells in the ipsilateral striatum", "setting": "[2]; sildenafil, vs contralateral hemisphere and ipsilateral striatum of control rats", "result": "significantly increased the number of TuJ1 cells"},
      {"measurement": "% of Foot-Faults", "setting": "[3]; Sildenafil 2 mg/kg, 2 h, 4 d after ischemia", "result": "22.81 ± 3.1", "unit": "%"},
      {"measurement": "% of Foot-Faults", "setting": "[3]; Sildenafil 2 mg/kg, 2 h, 7 d", "result": "15.2 ± 1.6", "unit": "%"},
      {"measurement": "% of Foot-Faults", "setting": "[3]; Sildenafil 2 mg/kg, 2 h, 14 d", "result": "13.2 ± 1.2", "unit": "%"},
      {"measurement": "% of Foot-Faults", "setting": "[3]; Sildenafil 2 mg/kg, 2 h, 21 d", "result": "9.1 ± 1.5", "unit": "%"},
      {"measurement": "% of Foot-Faults", "setting": "[3]; Sildenafil 2 mg/kg, 2 h, 28 d", "result": "8.2 ± 1.4", "unit": "%"},
      {"measurement": "% of Foot-Faults", "setting": "[3]; Sildenafil 2 mg/kg, 2 h group, Before Ischemia (baseline)", "result": "1.1 ± 0.01", "unit": "%"},
      {"measurement": "% of Foot-Faults", "setting": "[3]; Sildenafil 2 mg/kg, 24 h, 4 d", "result": "25.3 ± 3.8", "unit": "%"},
      {"measurement": "% of Foot-Faults", "setting": "[3]; Sildenafil 2 mg/kg, 24 h, 7 d", "result": "14.4 ± 1.0", "unit": "%"},
      {"measurement": "% of Foot-Faults", "setting": "[3]; Sildenafil 2 mg/kg, 24 h, 14 d", "result": "10.0 ± 0.5", "unit": "%"},
      {"measurement": "% of Foot-Faults", "setting": "[3]; Sildenafil 2 mg/kg, 24 h, 21 d", "result": "9.0 ± 0.5", "unit": "%"},
      {"measurement": "% of Foot-Faults", "setting": "[3]; Sildenafil 2 mg/kg, 24 h, 28 d", "result": "5.3 ± 0.8", "unit": "%"},
      {"measurement": "% of Foot-Faults", "setting": "[3]; Sildenafil 2 mg/kg, 24 h group, Before Ischemia (baseline)", "result": "1.03 ± 0.03", "unit": "%"},
      {"measurement": "% of Foot-Faults", "setting": "[3]; Sildenafil 5 mg/kg, 2 h, 4 d", "result": "17.9 ± 2.9", "unit": "%"},
      {"measurement": "% of Foot-Faults", "setting": "[3]; Sildenafil 5 mg/kg, 2 h, 7 d", "result": "16.6 ± 1.4", "unit": "%"},
      {"measurement": "% of Foot-Faults", "setting": "[3]; Sildenafil 5 mg/kg, 2 h, 14 d", "result": "14.6 ± 2.1", "unit": "%"},
      {"measurement": "% of Foot-Faults", "setting": "[3]; Sildenafil 5 mg/kg, 2 h, 21 d", "result": "9.5 ± 1.6", "unit": "%"},
      {"measurement": "% of Foot-Faults", "setting": "[3]; Sildenafil 5 mg/kg, 2 h, 28 d", "result": "7.6 ± 1.4", "unit": "%"},
      {"measurement": "% of Foot-Faults", "setting": "[3]; Sildenafil 5 mg/kg, 2 h group, Before Ischemia (baseline)", "result": "1.02 ± 0.02", "unit": "%"}
    ]},
    {"smiles": "NCCN(CCN)/[N+]([O-])=N/O", "note": "[DETANONOate, (Z)-1-[N-(2-aminoethyl)-N-(2-ammonioethyl)aminio]diazen-1-ium-1,2-diolate]", "values": [
      {"measurement": "number of proliferating cells (dentate gyrus, SVZ, OB)", "setting": "[4]", "result": "significantly increased the number of proliferating cells"}
    ]}
  ]
}
